Here are results for one substance from patent publication US20100248229A1, “INVITRO HUMAN EMBRYONIC MODEL AND A METHOD THEREOF” (Stempeutics Research Private Limited, priority 2007, published 2010).

Entries after “also recorded” stand apart in the source; their conditions may differ.

For data set [1], the system named is EBs. Description: Differentiation of EBs into tissues of mesoderm origin / osteoblast differentiation (von Kossa, Alizarin Red). The note with it: for osteoblast differentiation (mineralization by Alizarin Red and von Kossa staining): 15 days of differentiation. The class given is cell-based, human. The text has this:
The EBs were used to direct their differentiation into tissues of the ectoderm (nerve, skin), endoderm (pancreas, lungs), mesoderm (bone, blood, cardiomyocytes) and trophectoderm lineages (placenta) using known and published methods (Bader et al., 2000; Buttery et al., 2001; Lumelsky et al., 2001; Lee et al; 2000; Schuliner et al., 2001). A description of the methods used for differentiation of hESC to various tissues of the ectoderm, endoderm, mesoderm and trophectoderm lineages can be found in Hyslop et al. (2005). The ability of the compound/drug to inhibit the differentiation of EBs into these tissues of any particular type will indicate the possibility of developmental defect induced by the drug.
Endotoxins/LPS silenced the expression of mesoderm specific genes in the EBs. […] To confirm this effect the LPS exposed EBs were directed towards tissues of mesoderm origin like cardiomyocytes, blood or bone. […] This indicates the possibility of defects in the blood, bone or heart formation as a result of endotoxin exposure during fetal development.
EBs derived from the human embryonic stem cell (hESC) line HUES9 were exposed to 12.5 pg/ml of LPS for 48 hrs. The expression profile of the ectoderm, endoderm, mesoderm and trophectoderm lineage markers like βIII-tubulin, GATA4, BMP2, Brachury and β-hCG were studied, by RT-PCR and Immunofluorescence. Inhibition of mesoderm induction was confirmed by RT-PCR analysis for hANP, cTnT, ABCG2, GATA2, BMP4 and HAND1. Osteoblast differentiation was induced in the EBs, and confirmed by von Kosa and Alizarin red staining. A comet assay was also done to assess the degree of apoptosis in these EBs.
Osteoblast differentiation: To assess the differentiating potential of EBs towards tissues of mesoderm origin, embryoid bodies were produced and exposed to LPS as described above. The normal and LPS treated EBs, 30 each, were subjected to osteoblast differentiation from day 5.5 onwards. To stimulate differentiation into osteogenic cells, ES medium containing 10^−8 M Dexamethasone, 50 μg/ml L-ascorbic acid and 5 mM Sodium-beta-glycophosphate was used. The medium was changed every 2-3 days and the differentiation was continued upto 15 days. The osteoblast differentiation was characterized by identifying mineralized areas using von Kossa and Alizarin Red staining. These were visualized and acquired using a Nikon Eclipse 90i microscope (Nikon Corporation, Japan).

Data set [2] relates to EBs derived from hESC line HUES9. The data set is described as follows: Immunofluorescence localization of HMGB1 and Brachury in EBs. Format: cell-based, human. The note with it: for Brachury protein expression (immunofluorescence): day 4.5, normal EBs positive. The text has this:
Exposure of EBs to LPS: EBs at day-2.5 were exposed to 12.5 pg/ml of Endotoxin/lipopolysaccharide (LPS) (Sigma) for 48 hrs supplemented in culture medium. […] Post exposure, the control and endotoxin treated EBs were divided in two groups. One group was lysed in TRIZOL for RNA isolation and the other group was fixed in 4% paraformaldehyde for immunofluorescence. The expression profile of the ectoderm, endoderm, mesoderm and trophectoderm lineage markers like PHI-tubulin, GATA4, BMP2, Brachury and β-hCG etc. were studied by RT-PCR and Immunofluorescence. The expression of the LPS-inducible and pluripotency related DNA binding protein HMGB1 was also studied in both the control and treated EBs.
(§1) Immunofluorescence and Cell counting: HESCs were grown on coverslips coated with MEFs and then fixed with 4% paraformaldehyde and 5% sucrose (Sigma) followed by permeabilization in 0.2% Triton X100 (Sigma). The slides were then incubated with primary antibodies 1:500 dilution of SSEA4 (Chemicon, Calif., USA), 5 ug/ml Nanog (Santa Cruz Biotechnology, CA, USA), 10 μg/ml Brachury (R&D Systems Inc. Minneapolis, USA), and 1.5 μg/ml HMGB1 (Sigma) overnight at 4° C. After washing thrice with PBS, fluorescein isothiocyanate/Texas red-labeled Secondary antibodies against the primary goat/rabbit/mouse were added as 1:500 dilutions and incubated for 2 hours. DAPI (Sigma) was used for nuclear staining and then washed with PBS. The negative controls were done without primary antibodies. Slides were mounted with DABCC (Sigma) and images were acquired using Nikon Eclipse 90i microscope (Nikon Corporation, Japan) and Image-Pro Express software (Media Cybernetics, Inc, Silver Spring, Md.). The results were then compared with the control cells (non-LPS treated EBs). To count the number of cells per EB, the number of DAPI stained nuclei were counted in 10 each of the control and LPS treated EBs.

The test system is the same in data set [3]. The data set is described as follows: Cell counting: DAPI stained nuclei per EB. Format: cell-based, human. The note with it: 12.5 pg/ml for 48 hrs. The procedure: as §1
Cell numbers and DNA fragmentation: For a count of the average number of cells per EB, the DAPI stained nuclei were counted in individual control and LPS treated EBs under epifluorescence. […]

The test system is the same in data set [4]. Description: Comet assay: DNA fragmentation in EBs. The class given is cell-based, human. The note with it: EBs exposed for 48 hours. The procedure: Comet assay: Detection of DNA damage in individual EBs was carried out with a slight modification of the method described by. Comet tail length was calculated by measuring the streak of DNA comet tail between the edge of the embryoid bodies till the end of tail using Nikon Eclipse 90i microscope (Nikon Corporation, Japan) and Image-Pro Express software (Media Cybernetics, Inc, Silver Spring, Md.).

Data set [5] has as its system EBs. The data set is described as follows: Methylation specific PCR (MSP) and mRNA expression of epigenetically regulated genes in EBs. Format: cell-based, human. The note with it: 48 hrs, 5 ug/ml. An excerpt: Methylation status of several of the epigenetically regulated genes and the imprinted genes in response to exposure to various compounds/drugs or biologicals were screened.

Data set [6] deals with hematopoietic precursor cells. The note with it: report [21]; cited from earlier work.
[7] abbreviates: EBs pre-exposed to 12.5 pg/ml for 48 hrs.

Take lipopolysaccharide [LPS]: the “efficiency for attachment and proliferation during induction of osteogenic differentiation, treated vs control EBs” value in data set [1] (setting [7]) was “no differences were found”. Besides, the “osteoblast differentiation (mineralization by Alizarin Red and von Kossa staining)” value in data set [1] (setting [7]) was “failed to differentiate into functional osteoblasts; also recorded: failed to undergo osteoblast differentiation”; in data set [1] (EBs pre-exposed to 12.5 pg/ml for 48 hrs, listed as lipopolysaccharides), “absence of mineralization”. Moreover, the “differentiation of exposed EBs into tissues of mesoderm origin (cardiomyocytes, blood or bone)” value in data set [1] (LPS exposed EBs) is listed as “failure to differentiate”. The “Brachury protein expression (immunofluorescence)” value in data set [2] (12.5 pg/ml for 48 hrs) was “no signals”; in data set [2] (12.5 pg/ml for 48 hrs, listed as lipopolysaccharides), “loss of expression”. The “localization of HMGB1 (immunofluorescence)” value in data set [2] (12.5 pg/ml for 48 hrs, normal EBs lacked signals) is on record as “cytoplasmic localization; also recorded: localized in the cytoplasm”. Besides, the “Brachury expression on day 9.5” value in data set [2] (EBs exposed to 12.5 pg/ml for 48 hrs, tested on day 9.5) is reported as “did not show a positive signal”. Besides, the “average number of cells per EB, treated vs control” value in data set [3] was “not significantly different”. For the same substance, in data set [3] (control 142.33±48.41), the “average number of cells/EB (mean±SD)” value came to 175±75.47 cells/EB. Further, the “DNA tailing or fragmentation compared to control” value in data set [4] was “more DNA tailing or fragmentation”. For the same substance, in data set [4] (control 2.48±1.0701 μm), the “DNA tailing or fragmentation (comet tail length, average)” value is on record as 21.48±12.443 μm. Also, the “mRNA expression of SDHD, DYPS and CDH1” value in data set [5] (control EBs positive) is recorded as “negative mRNA expression/silencing”. For the same substance, in data set [5] (control: one of the alleles methylated), the “methylation status of SDHD, DYPS and CDH1 (MSP after bisulphite treatment)” value is on record as “both the alleles of these genes were methylated”. The “concentration enough to cause alterations in the proliferation of hematopoietic precursor cells in culture” value in data set [6] is 2 to 5 pg/mL.
